# From patent US4980378A, “Biodegradable absorption enhancers” (priority 1988, dated 1990)
# Read-outs that look alike come from different tables or passages of the source.
# Assays:
# [1] = Transdermal penetration of indomethacin from ointment across shed snake skin (vertical diffusion cell); type: in vitro ADME, black rat snake (Elahe obsoleta)
# Experimental: Ointments were prepared by mixing 100 mg (1%) indomethancin, 500 mg (5%) penetration enhancer and 9400 mg (94%) petrolatum at 55°-60°C. to give a homogenous dispersion of indomethacin. In each transport study, 30 mg of ointment containing […] of indomethacin was applied.
# (§1) A whole shed snake skin from the molt of adult Elahe obsoleta (black rat snake) was obtained from the Animal Care Unit of the University of Kansas. Only the dorsal side of the shed snake skin was used for in vitro penetration studies. The head and tail sections of the snake skin was removed and the remainder of the skin was cut randomly into sections of approximately 2 inches by 2 inches. Each piece of snake skin was hydrated overnight by first soaking the skin in water (about 5 to 10 minutes) until it could be stretched and then placing it on a plastic pan which held some water. The pan was floated on a water-bath at 32° C. overnight.
# For the transport studies using ointments, approximately 30 mg of ointment prepared as described in Example 5 was smeared evenly on an area of the 2"×2" snake skin. The ointment was smeared into an essentially circular area approximately 1.77 cm^2 and having a diameter of approximately 15 mm. The snake skin was then mounted on top of the receptor cell of a vertical diffusion cell assembly in which a small magnetic bar was inserted and filled with an isotonic buffer. A rubber o-ring was placed on top of the skin followed by the placement of the donor cell. The two cells were clamped together and transferred to a water-bath (32° C.) which had several magnetic stirrers placed underneath to stir the contents of the diffusion cells. Samples from the cells were withdrawn periodically by gravity by inputting fresh isotonic buffer into the cell inlets. The first five drops were discarded and the following […] drops were collected for analysis. These nine drops of sample solution were approximately equivalent to about 0.20 ml.
# The samples were analyzed for the concentration of indomethacin using a Perkin-Elmer ISS-100 HPLC apparatus with a Perkin-Elmer LC90 UV spectrophotometric detector and a Perkin-Elmer ISS-100 automatic sampler with the detection wavelength set at 260 nm. The peak heights of the chromatograms were recorded on a Perkin-Elmer LCI-100 Laboratory Computing Integrator. A reverse phase column, RP-8 Spheri-5, 4.6×100 mm and a guard column OD-GU, purchased from Brownlee Labs, were used in conjunction with the HPLC system. The flow rate was 1.0 ml/min and the solvent system was a mixture of acetonitrile (50%) and a 0.01 M phosphate buffer (pH 3.0) (50%).
# The concentration in each sample was interpreted from a standard curve which was obtained by plotting the peak areas obtained from HPL chromatograms versus four different standard solutions of indomethacin. The standard curves were linear over a range of concentrations from 2.5 to 10 µg/ml. The receptor cell volume was calibrated by weighing the amount of water in the cell. The first sample needs no concentration correction. However, the concentration in the subsequent samples can be corrected by the following equation: [formula] where Xi is number of microgram of indomethacin in the i^th sample. Yi is the concentration correction for i-l sample. The volume withdrawn for each sampling is about 0.20 ml.
# (§2) Statistical analyses were performed using the Student's t-test.
# Relative penetration enhancements (%) were calculated by [formula]
# Azone was selected as the for comparison since it is claimed to excellent enhancer although it is too toxic; was assigned a value of 100% enhancement.
# Penetration that was equal the penetration of Azone was reported as 100% rela penetration. All of the relative enhancements in Table 3 are based on the early stage or hours o penetration studies.
# At least 3 or 4 cells were used for each enhancer and mean val (μg) of indomethacin in the receptor cells are plotted versus time in hours.
# [2] = intraperitoneal administration; cited from earlier work
# [3] = type: in vitro ADME, black rat snake (Elahe obsoleta)
# Experimental: Patches were prepared by first dissolving 300 mg indomethacin, 400 mg penetration enhancer, 300 mg polyethylene glycol 400 and 800 mg hydroxypropyl cellulose in 20 ml of ethanol. That viscous solution was spread on a backing layer, which was a film of ethoxycellulose, with 0.9 mm of thickness. After drying at 40° C. for one hour, two layer film patches were obtained. Circles with a diameter of 12 mm were used for the transport studies.
# as §1, §2
# [4] = indomethacin ointment, 5% enhancer, relative to Azone = 100%, early stage of penetration studies, 32° C.
compound,measurement,setting,value
"CCCCCCCCCCCCN1CCCCCC1=O [Azone, 1-Dodecylazacycloheptane-2-One, reference compound]",Relative Enhancement,[1],100%
same,indomethacin detected in receptor cells,"[1]; ointment, early stage of less than 12 hours",only a few
same,LD50,[2],approximately 232 mg/kg
"CCCCCCCCCCCCCCOC(=O)CN(C)C [Compound No. 1, tetradecyl (N,N-dimethylamino)acetate]",Relative Enhancement,[1]; [4],100%
"CCCCCCCCCCCCOC(=O)CN(C)C [Compound No. 2, dodecyl (N,N-dimethylamino)acetate]",Relative Enhancement,[1],200%
same,speed of effect compared with Azone,[1],faster than that of Azone
same,transport of indomethacin compared with that accelerated by Azone,[1],twice
same,steady state flux for indomethacin,[3],3.84 ± 0.57 µg/h
same,steady state flux ratio versus dodecyl alcohol,[3],2.5 times
same,time to reach steady state flux of indomethacin,[3],about 2 hours
"CCCCCCCCOC(=O)CN(C)C [Compound No. 4, octyl (N,N-dimethylamino)acetate]",Relative Enhancement,[1],250%
"CCCCCCCCCCCCOC(=O)CN(CC)CC [Compound No. 5, dodecyl (N,N-diethylamino)acetate]",Relative Enhancement,[1]; [4],70%
"CCCCCCCCCCOC(=O)CN1CCN(C)CC1 [Compound No. 6, Decyl (4-methyl-1-piperazinyl)acetate]",Relative Enhancement,[1]; [4],40%
"CCCCCCCCCCOC(=O)CN(C)C [compound 3, decyl (N,N-dimethylamino)acetate]",Relative Enhancement,[1]; [4],380%
"CCCCCCCCCCCCO [dodecyl alcohol, reference compound]",steady state flux for indomethacin,[3],1.49 ± 0.21 µg/h
same,time to reach steady state flux of indomethacin,[3],about 5 hours
